TGI and GI50 data for 15 molecules are collected here from PubChem BioAssay (NCI).

Test systems include A498 renal; K-562 leukemia; KM20L2 colon; LOX IMVI melanoma; OVCAR-4 ovarian; SK-MEL-28 melanoma; SW-620 colon; HOP-18 NSCLC; DU-145 prostate; HS 578T breast.
What all share (experiment): NCI tumour cell line growth inhibition, 48 h

Several values for one entry are separate records, joined by “and”; a condition that tells them apart may be missing. Identical values can stand only once.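 These data come from cells grown in 96-well plates and exposed to compound for 48 hours at five concentrations. The concentration for 50% growth inhibition is given as GI50. TGI marks complete inhibition of growth.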

In the case of `CCCCCNC(=O)CCCCCCCCCCCNC(=O)CCCCCCCCCCN1C=CC(=CC=C2C=CC(=O)C=C2)C=C1`, the TGI with A498 renal, with K-562 leukemia, in the test with KM20L2 colon, with LOX IMVI melanoma, with OVCAR-4 ovarian and in the test with SK-MEL-28 melanoma was above 100 µM in each case. The TGI in the test with SW-620 colon is above 100 µM.
For the molecule `CC(=O)NC(CCCNC(=O)OCc1ccccc1)C(=O)NCc1ccccc1` (stereo not given), the TGI with A498 renal, with K-562 leukemia, with KM20L2 colon, in the test on LOX IMVI melanoma, in the test on OVCAR-4 ovarian and in the test on SK-MEL-28 melanoma was above 100 µM in each case. This molecule also gave a TGI with SW-620 colon above 100 µM.
For the molecule `Cc1ccccc1NC(=O)C1C(=O)N(c2ccccc2C)C(=O)/C1=N\NC(N)=O` (stereo not given), the TGI in the test on A498 renal, in the test on HOP-18 NSCLC, in the test on K-562 leukemia, in the test with KM20L2 colon, in the test on OVCAR-4 ovarian and with SK-MEL-28 melanoma was above 100 µM each time. Also, the TGI with SW-620 colon is above 100 µM.
As for `CN1S(=O)(=O)N(C)P12(N=P(CP(=NP13(N(C)S(=O)(=O)N1C)N(C)S(=O)(=O)N3C)(c1ccccc1)c1ccccc1)(c1ccccc1)c1ccccc1)N(C)S(=O)(=O)N2C`, the TGI in the test on A498 renal, in the test on HOP-18 NSCLC, in the test with K-562 leukemia, in the test with KM20L2 colon, in the test with LOX IMVI melanoma and with SK-MEL-28 melanoma was above 100 µM in each case. Besides, the TGI in the test with SW-620 colon was above 100 µM.
On to `CCCCC(C(=O)C(=O)Nc1ccccc1CC)C(=O)C(C)C` (stereo not given), for which the TGI in the test with A498 renal, in the test with K-562 leukemia, in the test with KM20L2 colon, in the test on LOX IMVI melanoma, with OVCAR-4 ovarian and in the test with SW-620 colon was above 100 µM throughout.
On to `O=C(CC1(O)C(=O)Nc2c(Cl)ccc(Cl)c21)c1ccc(Cl)cc1` (stereo not given), for which the TGI in the test with A498 renal is 82.5 µM; in the test with HOP-18 NSCLC, above 100 µM; in the test on KM20L2 colon it was above 100 µM; in the test with LOX IMVI melanoma it was 37.3 µM; in the test with OVCAR-4 ovarian, 41.4 µM; in the test on SK-MEL-28 melanoma, above 100 µM. In the test on SW-620 colon, the TGI was above 100 µM.
With `O=C1c2ccccc2C2(O)N(c3ccccc3)C(=S)N(c3ccccc3)C12O` (stereo not given), the TGI in the test on A498 renal, with HOP-18 NSCLC, in the test with K-562 leukemia, in the test with KM20L2 colon, in the test on LOX IMVI melanoma and in the test with OVCAR-4 ovarian was above 100 µM throughout. In addition, the TGI with SK-MEL-28 melanoma and in the test with SW-620 colon was above 100 µM each time.
With `CC(C)(C)c1ccc(OCCOCCOc2ccc(C(C)(C)C)cc2S(N)(=O)=O)c(S(N)(=O)=O)c1`, the TGI in the test with A498 renal, with HOP-18 NSCLC, with K-562 leukemia, in the test with LOX IMVI melanoma, in the test on OVCAR-4 ovarian and with SK-MEL-28 melanoma was above 100 µM throughout. This molecule had a TGI in the test on SW-620 colon above 100 µM.
In the case of `CCOC(=O)C#Cc1c(C(=O)OCC)nnn1[C@@H]1O[C@H](COC)[C@@H](OC)[C@H]1OC`, the GI50 in the test on A498 renal was 18.2 µM; with DU-145 prostate, 10.6 µM; with HS 578T breast it was 23.7 µM; with K-562 leukemia, 1.85 µM; with LOX IMVI melanoma, 1.16 µM; in the test with OVCAR-4 ovarian, 2.02 µM. Besides, the results for the GI50 in the test with SK-MEL-28 melanoma and with SW-620 colon were 3.49 µM and 1.99 µM, respectively. In addition, the TGI with A498 renal came out at 32.9 µM; in the test with DU-145 prostate, 22.4 µM; with HS 578T breast, 72.7 µM; with K-562 leukemia, 7.97 µM; in the test with LOX IMVI melanoma, 2.58 µM; in the test on OVCAR-4 ovarian it was 4.43 µM. Besides, the TGI in the test with SK-MEL-28 melanoma was 12.8 µM; in the test on SW-620 colon it was 4.06 µM.
For the molecule `O=c1c2cc(Br)ccc2nc(CNc2ccccc2)n1-c1ccccc1`, the TGI in the test with A498 renal was 93.4 µM; in the test on HOP-18 NSCLC, above 53.3 µM; in the test on K-562 leukemia, 58.1 µM; in the test on KM20L2 colon, above 100 µM; in the test with LOX IMVI melanoma, 19.6 µM; with OVCAR-4 ovarian it was 23 µM. For the same molecule, the figures for the TGI with SK-MEL-28 melanoma and in the test with SW-620 colon were above 65.6 µM and 27.5 µM, respectively.
Take `N#Cc1c(CC(=O)O)cc(=O)n2c1[nH]c1ccccc12`: the TGI in the test with A498 renal, with K-562 leukemia, with KM20L2 colon, in the test with LOX IMVI melanoma, in the test with OVCAR-4 ovarian and in the test with SK-MEL-28 melanoma was above 100 µM throughout. The same molecule returned a TGI in the test on SW-620 colon above 100 µM.
In the case of `O=C1c2ccccc2-c2c1c1c(O)cccc1n2Cc1ccccc1`, the GI50 was 6.24 µM with A498 renal; 11.9 µM in the test on DU-145 prostate; 10.3 µM in the test with HS 578T breast; 22.8 µM in the test with K-562 leukemia; 10.1 µM in the test with LOX IMVI melanoma; 7.14 µM with OVCAR-4 ovarian. Also, the results for the GI50 with SK-MEL-28 melanoma and in the test on SW-620 colon were 20.8 µM and 38 µM, respectively. Moreover, the TGI with A498 renal was 25 µM; with DU-145 prostate, 64.7 µM; in the test on HS 578T breast, 32.8 µM; with K-562 leukemia, above 100 µM; in the test with LOX IMVI melanoma, above 100 µM; in the test on OVCAR-4 ovarian, 43.9 µM. Moreover, the TGI with SK-MEL-28 melanoma is 62.4 µM; in the test on SW-620 colon it was above 100 µM.
Consider `CCOC(=O)C1(C)CCC(C(=O)OC)C1=O` (stereo not given), for which the TGI in the test with A498 renal is above 100 µM; in the test on HOP-18 NSCLC, above 100 µM; with K-562 leukemia, above 100 µM; in the test with KM20L2 colon, above 100 µM; in the test on LOX IMVI melanoma, 32.9 µM; in the test with OVCAR-4 ovarian it was above 100 µM. The molecule also yielded a TGI in the test with SK-MEL-28 melanoma above 100 µM.
Consider `CC(C)(C)C1CCC(O)(c2ccccc2)CC1` (stereo not given), for which the TGI with A498 renal is > 100 µM and 51.4 µM; in the test with HOP-18 NSCLC it was above 100 µM; in the test with K-562 leukemia, > 100 µM and 68.2 µM; in the test with KM20L2 colon it was > 100 µM and 31.7 µM; in the test on LOX IMVI melanoma, > 100 µM and 30.3 µM; in the test with SK-MEL-28 melanoma, > 100 µM and 64.5 µM. Also, in the test with SW-620 colon, the TGI is > 100 µM and 40.1 µM.
With `COC(=O)C1CC(=O)O[C@H]1c1ccc(OC)c(OC)c1` (stereo not given in full), the TGI in the test on A498 renal, in the test on HOP-18 NSCLC, in the test with K-562 leukemia, with KM20L2 colon, with LOX IMVI melanoma and with OVCAR-4 ovarian was above 100 µM throughout. The TGI with SK-MEL-28 melanoma and in the test on SW-620 colon was above 100 µM in each case.
